{"source": "patent US4533541A", "about": "“Tin-117m-labeled stannic (Sn^4+) chelates” (The United States of America as represented by the United …, priority 1983, dated 1985)", "details": "mouse, in vivo; for Blood, % Dose per Gram / Bone, % Dose per Gram / Kidneys, % Dose per Gram / Liver, % Dose per Gram / % Dose remaining in whole body: iv", "note": "Read-outs that look alike come from different tables or passages of the source.", "procedure": "Tissue distribution studies were done in normal BNL mice. All animals were injected with the appropriate radiopharmaceutical intravenously. A number of time periods up to 7 days after injection were used to collect the data.\nComparative studies were conducted using Sn^2+ chloride (pH 2 and 7), Sn^4+ chloride (pH 2), and Sn(2+ and 4+)-labeled chelates (MDP, DTPA, EHDP, and PYP).\nTissue distribution in mice of Sn(2+ and 4+) chloride (pH 2 and 7), and of the stannous and stannic chelates of MDP, DTPA, PYP, and EHDP is shown in Table 1.", "data": [{"smiles": "O.O.O=P([O-])([O-])CP(=O)([O-])[O-].[99Tc+4]", "note": "[^99m Tc-MDP]", "values": [{"measurement": "Ratio, bone to Blood", "setting": "30 min", "value": 29}, {"measurement": "Ratio, bone to Kidney", "setting": "30 min", "value": 8.1}, {"measurement": "Ratio, bone to Liver", "setting": "30 min", "value": 8.4}, {"measurement": "Ratio, bone to Muscle", "setting": "30 min", "value": 93}, {"measurement": "Ratio, bone to Blood", "setting": "180 min", "value": 85}, {"measurement": "Ratio, bone to Kidney", "setting": "180 min", "value": 11}, {"measurement": "Ratio, bone to Liver", "setting": "180 min", "value": 13}, {"measurement": "Ratio, bone to Muscle", "setting": "180 min", "value": 270}, {"measurement": "Ratio, bone to Blood", "setting": "1440 min", "value": 205}, {"measurement": "Ratio, bone to Kidney", "setting": "1440 min", "value": 18}, {"measurement": "Ratio, bone to Liver", "setting": "1440 min", "value": 14}, {"measurement": "Ratio, bone to Muscle", "setting": "1440 min", "value": 375}, {"measurement": "Blood, % Dose per Gram", "setting": "0.5 h", "value": 0.41, "unit": "% Dose per Gram"}, {"measurement": "Bone, % Dose per Gram", "setting": "0.5 h", "value": 11.80, "unit": "% Dose per Gram"}, {"measurement": "Kidneys, % Dose per Gram", "setting": "0.5 h", "value": 1.46, "unit": "% Dose per Gram"}, {"measurement": "Liver, % Dose per Gram", "setting": "0.5 h", "value": 1.41, "unit": "% Dose per Gram"}, {"measurement": "% Dose remaining in whole body", "setting": "30 min", "value": 33.5, "unit": "% Dose"}, {"measurement": "% Dose remaining in whole body", "setting": "180 min", "value": 30.2, "unit": "% Dose"}, {"measurement": "Blood, % Dose per Gram", "setting": "3 h", "value": 0.14, "unit": "% Dose per Gram"}, {"measurement": "Bone, % Dose per Gram", "setting": "3 h", "value": 12.30, "unit": "% Dose per Gram"}, {"measurement": "Kidneys, % Dose per Gram", "setting": "3 h", "value": 1.11, "unit": "% Dose per Gram"}, {"measurement": "Liver, % Dose per Gram", "setting": "3 h", "value": 0.97, "unit": "% Dose per Gram"}, {"measurement": "% Dose remaining in whole body", "setting": "1440 min", "value": 22.5, "unit": "% Dose"}, {"measurement": "Blood, % Dose per Gram", "setting": "24 h", "value": 0.05, "unit": "% Dose per Gram"}, {"measurement": "Bone, % Dose per Gram", "setting": "24 h", "value": 10.30, "unit": "% Dose per Gram"}, {"measurement": "Kidneys, % Dose per Gram", "setting": "24 h", "value": 0.57, "unit": "% Dose per Gram"}, {"measurement": "Liver, % Dose per Gram", "setting": "24 h", "value": 0.73, "unit": "% Dose per Gram"}]}]}
